# Measurements published in patent US8354548B2, “Glycine chroman-6-sulfonamides for use as inhibitors of diacylglycerol lipase” (priority 2010, dated 2013).
# pIC50: −log10 of the molar value. Where two headings read alike, the source gives them in different places.
# Target: T1, LG586 enzyme (Homo sapiens, UniProt Q9Y4D2)
# T1 sequence (Q9Y4D2 1-1042): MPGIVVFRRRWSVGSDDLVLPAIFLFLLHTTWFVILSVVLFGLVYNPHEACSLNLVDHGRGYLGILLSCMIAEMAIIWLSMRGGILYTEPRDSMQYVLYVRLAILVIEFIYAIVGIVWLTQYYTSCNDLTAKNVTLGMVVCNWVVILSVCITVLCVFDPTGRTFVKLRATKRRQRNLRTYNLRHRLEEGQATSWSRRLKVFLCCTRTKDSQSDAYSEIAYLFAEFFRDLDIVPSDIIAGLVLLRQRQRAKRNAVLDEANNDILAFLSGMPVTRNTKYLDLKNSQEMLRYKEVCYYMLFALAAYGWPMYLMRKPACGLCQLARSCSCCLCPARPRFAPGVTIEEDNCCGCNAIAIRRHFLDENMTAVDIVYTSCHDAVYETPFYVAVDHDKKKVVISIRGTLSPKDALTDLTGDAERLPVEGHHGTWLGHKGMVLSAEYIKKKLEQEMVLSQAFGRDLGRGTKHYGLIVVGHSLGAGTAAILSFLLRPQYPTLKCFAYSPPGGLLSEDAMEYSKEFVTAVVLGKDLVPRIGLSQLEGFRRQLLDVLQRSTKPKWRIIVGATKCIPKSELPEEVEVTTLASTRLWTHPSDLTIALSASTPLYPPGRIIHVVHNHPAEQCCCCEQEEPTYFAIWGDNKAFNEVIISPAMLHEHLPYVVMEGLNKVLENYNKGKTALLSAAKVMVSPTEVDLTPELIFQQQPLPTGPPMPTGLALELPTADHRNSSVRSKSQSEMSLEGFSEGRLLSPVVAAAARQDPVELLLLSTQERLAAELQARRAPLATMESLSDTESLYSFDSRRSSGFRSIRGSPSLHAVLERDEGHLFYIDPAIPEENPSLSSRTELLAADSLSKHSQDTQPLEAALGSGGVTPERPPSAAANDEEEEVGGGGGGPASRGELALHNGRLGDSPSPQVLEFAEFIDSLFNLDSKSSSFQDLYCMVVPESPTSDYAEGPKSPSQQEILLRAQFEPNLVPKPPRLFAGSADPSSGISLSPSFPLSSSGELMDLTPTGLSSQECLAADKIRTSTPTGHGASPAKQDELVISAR
# Type: biochemical
# Conditions: LG586 membrane prep, 250 μM PNP substrate, 10 min preincubation
# Description: Black non-binding surface Corning plates (3655) were spotted with 0.9 μL of compound in twenty point 1:3 dilutions. The same volume of dimethyl sulfoxide (DMSO) was added to column 23 of the plate.
# A membrane prep from a stable HEK cell line expressing LG586 was prepared by the Cell Resource Group at BMS in Hopewell, N.J. The protein concentration of the membrane prep was 1.28 μg/μL. […] For the assay, membrane was thawed to room temperature and then added to the assay buffer, 100 mM HEPES in MQ water at pH 7.5. The concentration of the LG586 enzyme in the assay is 0.005 μg/mL.
# The substrate used in this assay was purchased from Sigma (N9876) p-nitrophenyl butyrate (PNP). The substrate is received in the liquid form and must be diluted with DMSO. […] The final concentration of the substrate is 250 μM.
# Enzyme was added to the plates 80 μL/well using a Multi-drop Combi (Thermo). The plates were incubated with the compound for 10 minutes at room temperature. Then 9 μL of substrate was added to each well and the plates were immediately read on the Viewlux Imager (Perkin Elmer) in absorbance mode with the excitation filter of 405 nm and emission filter of 564/250 nm. The read was kinetic, plates were read once every 30 seconds for 5 minutes and then slopes were calculated for each well and the data was reduced with in-house software.
substance,measurement,setting,value
"2-(2,2-dimethyl-N-(4-(naphthalen-1-yl)benzyl)chroman-6-sulfonamido)acetic acid [Example 23]",pIC50,read-out: Data Range*,7.00 to 8.70
same,pIC50,read-out: LE_LG586PNP_DR (IC50),8.52
